The test system of assay [1] is olfactory bulb inflammation, GFAP (reactive astrocytes). The assay can be described thus: Olfactory bulb injury model (transection), GFAP immunohistochemistry. It is filed as in vivo, Sprague-Dawley rat. As to conditions: rat olfactory bulb, days 2-14. The method, then:
The anti-inflammatory effects of EARA-16 (SEQ ID NO: 89) and RADA-16 (SEQ ID NO: 1) were examined using an olfactory bulb injury model. Levels of inflammation were assayed through immunohistochemical staining for glial fibrillary acidic protein (GFAP) as an indicator of reactive astrocytes.
In brief, the olfactory bulbs of adult Sprague-Dawley rats were unilaterally transected and the cuts were then treated with either saline as a control, or one of RADA-16 (SEQ ID NO: 1) or EARA-16 (SEQ ID NO: 89) solutions (each used at 1% and 3%). The SAP materials were injected into the cuts post transection at the time of surgery. After 2, 7 or 14 days, the animals were sacrificed.
A more detailed protocol is as follows: adult Sprague-Dawley rats were anesthetized with a mixture of ketamine (80 mg/kg, i. p.) and xylazine (8 mg/kg, i. p.). The head was shaved and a thorough disinfection of the head surface was carried out with iodine 5% solution. The bilateral olfactory bulbs were exposed by drilling two burr holes (2 mm diameter, 8 mm anterior to the bregma) on either side at a distance of 2 mm from the midline of the frontal bone in the region overlying the olfactory bulbs. A cataract knife with a blunted end and one sharpened edge was used for surgery. The cut was performed on the middle of olfactory bulb. The blunted edge of the knife was inserted along the middle line of the olfactory bulb to prevent damage of the sagittal sinus, until the tip of the knife lightly touched the bottom of the brain without penetration of the dura. The knife was then moved laterally to transect the bulb until it reached the lateral edge of the hole. The knife was then rotated and pulled out to have a complete cut of the bulb at lateral side. This procedure was modified from the method described in several previous studies attempting to isolate the olfactory bulb from other parts of the brain (Ahrens & Freeman 2001; Allison 1953; Chaput 1983; Freeman 1968; Koliatsos et al 2004; Munirathinam et al 1997).
After performing the cut, one of the solutions was used to treat the injury site: either 10 μl saline (control group) or the EARA-16 (SEQ ID NO: 89) or RADA-16 (SEQ ID NO: 1) SAP (at a concentration of 1% and 3%) was injected evenly into the wound site using a self-constructed hydraulic pressure injection system without micro syringe. This technique was modified from similar methods as described by Bullier and others (Bullier et al 1980; Fish & Rhoades 1981; Kratskin et al 1997; Meyers & Snow 1981; Price et al 1977; Shipley 1982). Care was taken to control the speed of the injection of the saline or the SAP. After the injection, the wound was closed and the animals were placed in a warm place for recovery before they were brought back to their home cages. […]

The test system of assay [2] is liver inflammation, ED-1 reactivity (macrophage activation). The assay can be described thus: Rat liver injury model (punch biopsy), ED-1 immunohistochemistry. It counts as in vivo, Sprague-Dawley rat. As to conditions: 4 mm punch biopsy, all time-points observed, compared to saline or acid controls. The method, then: The anti-inflammatory effects of EARA-16 (SEQ ID NO: 89) and RADA-16 (SEQ ID NO: 1) SAPs were examined using a liver injury model. Levels of inflammation were assayed through immuno-histochemical ED-1 reactivity (ED-1 serves as a marker of macrophage activation).
Pigs or adult Sprague-Dawley rats were anesthetized and their intraperitoneal cavities were opened under aseptic conditions. For each animal, the liver was exposed and then subjected to an 8 mm (pig) or 4 mm (rat) punch biopsy.
The punch sites were then cauterized or treated with acid (for pH control), saline, or RADA-16 (SEQ ID NO: 1) or EARA-16 (SEQ ID NO: 89) solutions. The animals were allowed to survive for up to 14 days. The animals were then sacrificed and their livers were harvested and sectioned. An ED-1 antibody was used to determine the level of inflammation and activation of macrophages in the liver via immunohistochemistry (IHC).

The test system of a further assay is Human THP-1 cells. The assay is described as follows: Cytokine release by THP-1 cells exposed to LPS/RADA-16 mixture. It is filed as cell-based. As to conditions: LPS 1 μg/ml added to 1, 10 or 100 μg/well peptide, then to THP-1 cells. The method, then:
The anti-inflammatory effect of a SAP was examined using an in vitro assay to assess cytokine release by human THP-1 cells in the presence of SAP. Measurement of THP-1 cell activation in response to antigen was assessed by cytokine release.
To assess cytokine release upon THP-1 cell activation, lipopolysaccharides (LPS) from Salmonella typhimurium (catalog no. L-7261; Sigma-Aldrich, St. Louis, MO) were added to THP-1 cells, at a concentration of 1 μg/ml.
To determine the effects of exposing THP-1 cells to RADA-16 (SEQ ID NO: 1) upon cytokine release, LPS was added to each of the 1 μg/well, 10 μg/well, or 100 μg/well RADA-16 samples, and then added to THP-1 cells.
The release of cytokines in response to exposure of THP-1 cells to RADA-16 (SEQ ID NO: 1) or LPS was measured using the PROTEOME PROFILER™ Array kit, commercially available as a test strip kit for detection of cytokines in solution (R&D Systems, Inc., Catalog Number ARY005). The assay was carried out according to the manufacturer's guide lines.

Entries after “also recorded” stand apart in the source; their conditions may differ.

“RADARADARADARADA [RADA-16, self-assembling peptide]”: the “time course of reactive astrocyte activation / inflammation (GFAP)” value in assay [1] (1% solution) and in assay [1] (3% solution) was “increased activation of reactive astrocytes on day 7 which subsequently reduced by day 14” each time. In addition, the “levels of inflammation in liver (ED-1 IHC)” value in assay [2] is “markedly reduced the levels of inflammation”. For the same sequence, the “cytokine release upon LPS exposure (C5a, TNFSF2, IL-6, IL-8/CXCL8, MCP-1/CCL2, MIP-1/CCL3, MIP-1/CCL4, IL-1/IL1-F2)” value in the assay with Human THP-1 cells is reported as “reduced levels of cytokine release; also recorded: prevented or reduced the release of cytokines”.

(Values after patent US20240051997A1, “SAP AND PEPTIDOMIMETIC COMPOSITIONS FOR REDUCING SYMPTOMS OF INFLAMMATION” (Arch Biosurgery, Inc., priority 2018, published 2024).)
